Data: patent US20080305519A1, “Biochemical method for specific protein labeling” (priority 2006, published 2008)

What was measured:
[1] = target: T1, ubiquitin activating enzyme (E1), rabbit (Oryctolagus cuniculus, UniProt Q29504); assay: E1-Biotin Tag Conjugation Assay; type: biochemical
T1 construct: purchased Boston Biochem E-302
T1 sequence (Q29504 1-1058): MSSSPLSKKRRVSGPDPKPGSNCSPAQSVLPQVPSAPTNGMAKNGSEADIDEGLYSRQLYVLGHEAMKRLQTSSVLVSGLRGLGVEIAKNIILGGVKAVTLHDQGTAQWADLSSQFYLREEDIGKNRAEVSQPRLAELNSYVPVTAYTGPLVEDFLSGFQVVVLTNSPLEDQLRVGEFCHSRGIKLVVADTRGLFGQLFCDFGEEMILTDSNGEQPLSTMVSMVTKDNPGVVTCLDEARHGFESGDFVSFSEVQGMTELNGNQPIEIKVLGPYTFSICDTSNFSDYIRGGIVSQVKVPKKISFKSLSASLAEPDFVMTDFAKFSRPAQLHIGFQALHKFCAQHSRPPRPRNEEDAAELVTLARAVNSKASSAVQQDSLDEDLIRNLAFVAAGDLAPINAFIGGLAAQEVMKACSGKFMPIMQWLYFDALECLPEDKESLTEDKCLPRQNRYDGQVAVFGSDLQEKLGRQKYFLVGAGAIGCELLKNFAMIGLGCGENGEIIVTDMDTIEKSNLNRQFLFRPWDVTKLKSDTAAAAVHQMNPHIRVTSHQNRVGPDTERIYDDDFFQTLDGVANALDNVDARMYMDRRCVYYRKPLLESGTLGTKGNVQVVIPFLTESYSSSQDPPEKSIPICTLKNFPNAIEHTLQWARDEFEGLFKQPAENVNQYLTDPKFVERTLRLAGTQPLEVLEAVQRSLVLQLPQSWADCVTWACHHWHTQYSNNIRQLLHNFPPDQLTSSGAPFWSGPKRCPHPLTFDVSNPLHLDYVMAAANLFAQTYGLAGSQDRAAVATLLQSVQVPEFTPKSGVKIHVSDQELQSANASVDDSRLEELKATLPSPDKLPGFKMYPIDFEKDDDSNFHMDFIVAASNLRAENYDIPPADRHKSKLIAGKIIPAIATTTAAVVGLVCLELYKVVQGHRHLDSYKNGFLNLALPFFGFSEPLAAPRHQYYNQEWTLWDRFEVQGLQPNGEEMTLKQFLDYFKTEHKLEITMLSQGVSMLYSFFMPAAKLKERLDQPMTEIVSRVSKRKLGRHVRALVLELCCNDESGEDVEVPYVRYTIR
Description: The E1 enzyme was diluted with 50 mM HEPES buffer, pH 7.6 to derive the 0.45 μM stocks. A total of 90 nM rabbit E1 and varying concentrations of tag 1 was incubated at 37° C. for 5 min in 10 μL buffers of 50 mM Tris, 50 mM NaCl, 10 mM MgCl2, 10 μM ATP, pH 7.6. The reactions were terminated by the additions of 2 μL 6× bromophenol-absent SDS sample buffer and the mixtures were boiled at 85° C. for 2 min. The biotin-labeled E1 thioesters were resolved from the free biotin tags with 8-16% Tris-Glycine SDS-PAGE gel, transferred onto the PVDF membrane using a semi-dry protein transfer apparatus, and detected using the VECTASTAIN ABC-AmP detection system following the manufacturer's protocol. Briefly, the membrane was washed three times for 4 min each in 10 mL 1× casein solution at r.t. with gentle shaking, and then incubated in the 10 mL 1× casein blotting solution containing 20 μL each of reagent A and B from the kit for 10 min. The membrane was washed three times for 4 min each in 10 mL 1× casein solution, followed by equilibration in 10 mL 0.1M Tris buffer, pH 9.5, for 5 min. The excess buffer was removed and the blot surface was incubated in 3 mL DuoLux chemiluminescent substrate for 5 min under subdued light. Briefly rinse the blot in 0.1 M Tris buffer, pH 9.5, and remove the excess buffer by touching the edge of the blot to absorbent paper. The image was obtained by exposing the blot to the Kodak BioMax Light Film.

[2] = system: semi-purified tubulin/parkin complex; assay: Biotin Tag Conjugation of Tubulin/Parkin Complex; type: biochemical, rat; conditions: for biotin labeling efficiency of parkin-mediated tubulin modification versus recognition sequence: FIG. 2b, tags 1-6 compared; for labeling of tubulin in tubulin/parkin complex (FIG. 8): FIG. 8 lanes 3 and 6
Description: A total of 4 μg semi-purified tubulin/parkin complex and varying concentrations of the biotin tag was incubated at 37° C. for 15 min in 10 μL buffers of 50 mM Tris, 50 mM NaCl, 10 mM MgCl2, 10 μM ATP, pH 7.6. For DTT reduction, 1 μL of 6M DTT was added and the solution was incubated at r.t. for additional 30 min. Reactions were terminated by the additions of 2 μL 6×SDS-PAGE sample buffer containing 100 mM DTT and the mixtures were boiled at 95° C. for 5 min. The biotin-labeled substrates were resolved from the free biotin tags with 8-16% Tris-Glycine SDS-PAGE gel, transferred onto the PVDF membrane using a semi-dry protein transfer apparatus, and detected using the VECTASTAIN ABC-AmP detection system following the manufacturer's protocol. The intensities of protein bands are quantified with the ImageJ program (http://rsb.info.nih.gov/ij/) following the program manual.

[3] = target: T2, UbCH7 (E2), human recombinant (Homo sapiens, UniProt P68036); assay: E2-Biotin Tag Conjugation Assay; type: biochemical
T2 construct: purchased Boston Biochem E2-640
T2 sequence (P68036 whole entry): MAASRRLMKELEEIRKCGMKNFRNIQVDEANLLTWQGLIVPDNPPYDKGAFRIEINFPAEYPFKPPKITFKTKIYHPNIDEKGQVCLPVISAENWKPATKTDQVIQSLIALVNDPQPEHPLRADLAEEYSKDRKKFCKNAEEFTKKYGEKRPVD
Description: The UbCH7 enzyme was diluted with a buffer of 50 mM HEPES, 50 mM NaCl, 10% glycerol, pH 7.6 to derive the 10 μM stocks. […] Reactions were terminated by the additions of 2 μL 6× non-reducing bromophenol-absent SDS-PAGE sample buffer and the mixtures were boiled at 85° C. for 2 min. The biotin-labeled […] were resolved from the free biotin tags with 8-16% Tris-Glycine SDS-PAGE gel, transferred onto the PVDF membrane using a semi-dry protein transfer apparatus, and detected using the VECTASTAIN ABC-AmP detection system following the manufacturer's protocol.

[4] = system: Fraction II, rabbit reticulocyte; assay: Fraction II - Biotin Tag Conjugation Assay; type: biochemical; conditions: ubiquitin-free reticulocyte fraction II containing E1, E2, E3 activities
Description: The fraction II from rabbit reticulocyte lysates was cleaned with ImmunoPure immobilized streptavidin beads from Pierce (Rockford, Ill.) to remove non-specific streptavidin-binding proteins following the manufacturer's instruction. An aliquot (11 μg) was then incubated with various amounts of biotin tag in 10 μL reaction buffer (100 mM Tris, 3 mM DTT, 5 mM MgCl2, 2 mM ATP, pH 7.6) at 37° C. for 5 min. The reactions were terminated by adding 2 μL 6×SDS-PAGE sample buffer and the mixtures were boiled at 85° C. for 2 min. The biotin-labeled substrates were resolved from the free biotin tags with 8-16% Tris-Glycine SDS-PAGE gel, transferred onto the PVDF membrane using a semi-dry protein transfer apparatus, and detected using the VECTASTAIN ABC-AmP detection system following the manufacturer's protocol.

Compound	activity in E1 adduct formation ([1]; concentrations as high as 450 μM)	biotin labeling efficiency of parkin-mediated tubulin modification versus recognition sequence [2]	formation of E1-biotin tag adduct (E1-1 thioester) ([1]; incubated with E1 for 5 min, non-reducing ATP-supplemented buffer, streptavidin blot)	E1 biotin-adduct formation on withdrawal of ATP ([1]; no ATP in reaction buffer, tag 150 μM (FIG. 6))	biotin labeling of E2 in the absence of E1 ([3]; incubation with E2 alone, no E1)	extent of tag transfer from E1-1 to E2 ([3]; tag concentration reduced to 50 μM, E1 and E2 present)	covalent modification of proteins in fraction II extract [4]	concentration range of concentration-dependent biotin labeling of 55 KDa protein (tubulin) ([2]; 10 μM ATP, FIG. 2a) [µM]	labeling of tubulin in tubulin/parkin complex (FIG. 8) [2]	labeling of proteins in tubulin/parkin complex ([2]; 450 μM)
tag 2: biotin linked through aminohexanoic acid linker to sequence LALRGG (SEQ ID NO: 2) (HELM PEPTIDE1{[O=C1N[C@H]2[C@H](CS[C@H]2CCCCC(=O)[*:2])N1].[O=C(CCCCCN[*:1])[*:2]].L.A.L.R.G.G}$$$$V2.0; SMILES CC(C)C[C@H](NC(=O)CCCCCNC(=O)CCCC[C@@H]1SC[C@@H]2NC(=O)N[C@@H]21)C(=O)N[C@@H](C)C(=O)N[C@@H](CC(C)C)C(=O)N[C@@H](CCCNC(=N)N)C(=O)NCC(=O)NCC(=O)O)	almost no activity	decreased biotin labeling								
tag 1: biotin linked through aminohexanoic acid linker to recognition sequence LRLRGG (SEQ ID NO: 1) (HELM PEPTIDE1{[O=C1N[C@H]2[C@H](CS[C@H]2CCCCC(=O)[*:2])N1].[O=C(CCCCCN[*:1])[*:2]].L.R.L.R.G.G}$$$$V2.0; SMILES CC(C)C[C@H](NC(=O)CCCCCNC(=O)CCCC[C@@H]1SC[C@@H]2NC(=O)N[C@@H]21)C(=O)N[C@@H](CCCNC(=N)N)C(=O)N[C@@H](CC(C)C)C(=O)N[C@@H](CCCNC(=N)N)C(=O)NCC(=O)NCC(=O)O)		highest labeling efficacy	biotin-containing protein bands with the size matching that of E1 were detected	aborted the biotin-adduct formation	did not give rise to the biotin-labeled E2	undetectable level	concentration-dependent covalent modification of a large number of proteins	17 to 450	Robust labeling	
O=C(O)CCCCCNC(=O)CCCC[C@@H]1SC[C@@H]2NC(=O)N[C@@H]21 [long-chain biotin, biotinylaminohexanonic acid, reference compound]									could not label the tubulins	no labeling of any protein
